Source: publication PMC6989684 (Scientific Reports, 2020)

Target: T1, M. musculus importin-α (MmImpα), variant α2, truncated 70–529 (Mus musculus, UniProt P52293)
T1 construct: histidine tag; made in house; host or cells: Escherichia coli Rosetta (TM) pLYS
Assay: Isothermal titration calorimetry (ITC), NLS peptide titrated into MmImpα
Format: binding
Conditions: 20 °C; for interaction with Impα receptor in words: mutated PAC-3 NLS (basic cluster to Ala), pH 8.0, protein/peptide 1:10 and 1:20; for Stoichiometry (binding): mutated PAC-3 NLS, 20 mM Tris-HCl pH 8.0, 100 mM NaCl, protein/peptide 1:10 and 1:20
Source text: The gene encoding the protein Impα from M. musculus was cloned into the pET30a expression vector. Recombinant MmImpα was cloned with a histidine tag and as a truncated protein (70–529) to avoid autoinhibition. The clones were provided by Dr. Bostjan Kobe from the University of Queensland (Australia). The plasmid was expressed in Escherichia coli host strain Rosetta (TM) pLYS (Novagen), and the recombinant protein was purified by affinity chromatography according to Barros et al., 2012[59]. The protein was eluted with a 0.0–0.15 M imidazole linear gradient, concentrated using an Amicon dispositive, and the buffer was changed to 20 mM Tris-HCl, pH 8.0 and 100 mM NaCl for storage. The purified protein was stored at cryogenic temperature.
The samples were submitted to ITC experiments, performed with a MicroCal iTC200 microcalorimeter (GE Healthcare), where the peptide sample was titrated into the protein sample. […] Control experiments were performed by titration of the peptide sample into the buffer, and the data obtained were subtracted from the peptide:protein titrations. Data were processed using Origin 7.0 software (Microcal Software, Northampton, MA) to obtain the thermodynamic constants of the interactions.

Row | Stoichiometry (binding) | Sequence | interaction with Impα receptor in words
1 | No binding | FDAAAAQFDDLNDFFGSVKRRQIN [PAC3Δminor, mutated PAC-3 NLS peptide, N-terminal basic cluster mutated] | no measured interaction with Impα receptor
2 | No binding | FDARKRQFDDLNDFFGSVAAAQIN [PAC3Δmajor, mutated PAC-3 NLS peptide, C-terminal basic cluster mutated] | no measured interaction with Impα receptor
